In patent US20220174947A1, “ANTIMICROBIAL MIXTURE CONTAINING 4-(3-ETHOXY-4-HYDROXYPHENYL)BUTAN-2-ONE AND AN ALCOHOL COMPOUND, AND COSMETIC COMPOSITION CONTAINING SAME” (L'OREAL, priority 2018, published 2022):

What was measured:
Experiment in all cases: Synergistic antimicrobial activity as MIC, 96-well microplate, optical density at 620 nm
Assay type in all cases: cell-based
[1] = test system: Staphylococcus aureus ATCC 6538; details: for % MIC of A alone: Staphylococcus aureus, growth <= 25%
Text: (§1) FIC Index=(MIC of A with B/MIC of A)+(MIC of B with A/MIC of B [Math. 1]
(§2) with: • MIC of A with B: minimum concentration of product A in the combination A+B which makes it possible to obtain an inhibitory effect; • MIC of B with A: minimum concentration of product B in the combination A+B which makes it possible to obtain an inhibitory effect; • MIC of A: minimum inhibitory concentration of product A alone; • MIC of B: minimum inhibitory concentration of product B alone. This formula was described for the first time in the article by F. C. Kull, P. C. Eisman, H. D. Sylwestrowka, and R. L. Mayer, Applied Microbiology 9:538-541, 1961.
The microbial strain Staphylococcus aureus ATCC 6538 and a double-concentration nutrient broth liquid culture medium were used.
(§3) A 96-well microplate at an incubation temperature of 32.5° C. is used.
(§4) The incubation time of the microplate is: • from 24 to 30 h under aerobic conditions for microbial Aspergillus niger ATCC 6275; • from 18 to 24 h under aerobic conditions for Candida albicans ATCC 10231, Pseudomonas aeruginosa ATCC 9027 and Staphylococcus aureus ATCC 6538; • from 24 to 48 h under aerobic conditions for Enterococcus faecalis ATCC 33186.
(§5) For each compound: A=4-(3-ethoxy-4-hydroxyphenyl) butan-2-one compound B=alcohol compound A 10% (weight/volume) stock solution was prepared by mixing 1 g of compound in 9 ml of aqueous 1% agar solution. Successive dilutions were made with the 1% agar solution.
(§6) 50 μl of each of the daughter solutions obtained containing compound A or B are added to the microplate wells. 100 μl of Sabouraud liquid nutrient broth inoculated at double concentration with the Aspergillus niger strain and 50 μl of aqueous 1% agar solution are also added thereto.
(§7) 50 μl of each of the daughter solutions obtained containing compound A and 50 μl of each of the daughter solutions obtained containing compound B are added to the microplate wells. 100 μl of Sabouraud liquid nutrient broth inoculated at double concentration with the strain Aspergillus niger are also added thereto.
(§8) A positive microbial growth control was also prepared. The positive microbial growth control corresponds to a mixture of 100 μl of aqueous 1% agar solution with 100 μl of Sabouraud liquid nutrient broth inoculated at double concentration with the strain Aspergillus niger in the absence of compounds A and B.
(§9) An absorbance control was performed in parallel on compounds A and B alone. This control corresponds to 100 μl of double concentration sterile Sabouraud liquid nutrient broth+100 μl of double concentration compound A or B.
(§10) In the three cases (absorbance control, growth control and test), the final volume present in each of the microplate wells is 200 μl.
The test as described above (tests, absorbance control and growth control) was performed again to test the combination A+B on the following strains Enterococcus faecalis, Staphylococcus aureus, Pseudomonas aeruginosa, Candida albicans, where appropriate.

[2] = test system: Candida albicans ATCC 10231; details: for microbial growth percentage: 0 B5 weight %
Text: with: • MIC of A with B: minimum concentration of product A in the combination A+B which makes it possible to obtain an inhibitory effect; • MIC of B with A: minimum concentration of product B in the combination A+B which makes it possible to obtain an inhibitory effect; • MIC of A: minimum inhibitory concentration of product A alone; • MIC of B: minimum inhibitory concentration of product B alone. This formula was described for the first time in the article by F. C. Kull, […], and R. L. Mayer, Applied Microbiology 9:538-541, 1961. […] When the FIC index value is less than or equal to 1, it is considered that the combination of test compounds has a synergistic effect. […] A 96-well microplate at an incubation temperature of 32.5° C. is used. […] For each compound: […] 50 μl of each of the daughter solutions obtained containing compound A and 50 μl of each of the daughter solutions obtained containing compound B are added to the microplate wells. 100 μl of Sabouraud liquid nutrient broth inoculated at double concentration with the strain Aspergillus niger are also added thereto. A positive microbial growth control was also prepared. […] An absorbance control was performed in parallel on compounds A and B alone. This control corresponds to 100 μl of double concentration sterile Sabouraud liquid nutrient broth+100 μl of double concentration compound A or B. […] The test as described above (tests, absorbance control and growth control) was performed again to test the combination A+B on the following strains Enterococcus faecalis, Staphylococcus aureus, Pseudomonas aeruginosa, Candida albicans, where appropriate.

[3] = test system: Aspergillus niger ATCC 6275; details: for % MIC of A alone: Aspergillus niger, growth <= 25%
Text: as §1, §2
The microbial strain Aspergillus niger ATCC 6275, and a double-concentration Sabouraud broth liquid culture medium supplemented with polyoxyethylenated (20 OE) sorbitan monopalmitate (Tween 40 from Croda) and Phytagel© BioReagent were used (i.e. a mixture of 5 g of Phytagel+0.6 g of Tween 40+60 g of Sabouraud broth).
as §3, §4, §5, §6, §7, §8, §9, §10
In the two cases (test and control), the inoculum represents the concentration of the Aspergillus niger strain present in the final volume of the wells (200 μl) and is between 2 and 6×10^5 cfu/ml of Aspergillus niger.

## CCOc1cc(CCC(C)=O)ccc1O [A, 4-(3-ethoxy-4-hydroxyphenyl)butan-2-one]
[1]; 0.0625 A, 0 B2 weight %
  microbial growth percentage: 52%
[1]; 0.0625 A, 0 B6 weight %
  microbial growth percentage: 65%
[1]; 0.125 A, 0 B2 weight %
  microbial growth percentage: 49%
[1]; 0.125 A, 0 B6 weight %
  microbial growth percentage: 75%
[1]; 0.25 A, 0 B2 weight %
  microbial growth percentage: 52%
[1]; 0.25 A, 0 B6 weight %
  microbial growth percentage: 79%
[1]; 0.5 A, 0 B2 weight %
  microbial growth percentage: 75%
[1]; 0.5 A, 0 B6 weight %
  microbial growth percentage: 24%
[1]; 1 A, 0 B2 weight %
  microbial growth percentage: 2%
[1]; 1 A, 0 B6 weight %
  microbial growth percentage: 5%
[1]; Example 2
  % MIC of A alone: 1%
[1]; Example 6
  % MIC of A alone: 1%
[2]; 0.025 A
  microbial growth percentage: 69%
[2]; 0.05 A
  microbial growth percentage: 54%
[2]; 0.1 A
  microbial growth percentage: 27%
[2]; 0.2 A
  microbial growth percentage: 4%
[2]; Candida albicans, Example 5, growth <= 25%
  % MIC of A alone: 0.2%
[3]; 0.025 A, 0 B1 weight %
  microbial growth percentage: 82%
[3]; 0.025 A, 0 B3 weight %
  microbial growth percentage: 45%
[3]; 0.025 A, 0 B5 weight %
  microbial growth percentage: 55%
[3]; 0.05 A, 0 B1 weight %
  microbial growth percentage: 43%
[3]; 0.05 A, 0 B3 weight %
  microbial growth percentage: 35%
[3]; 0.05 A, 0 B5 weight %
  microbial growth percentage: 32%
[3]; 0.1 A, 0 B1 weight %
  microbial growth percentage: 5%
[3]; 0.1 A, 0 B3 weight %
  microbial growth percentage: 14%
[3]; 0.1 A, 0 B5 weight %
  microbial growth percentage: 16%
[3]; Example 1
  % MIC of A alone: 0.1%
[3]; Example 3
  % MIC of A alone: 0.1%
[3]; Example 5
  % MIC of A alone: 0.1%
